Data taken from PubChem BioAssay AID330 (DTP/NCI, 2004).
Where “and” joins values, the source holds several entries; their conditions need not be identical. Equal values may be shown once. Toxic doses and inconclusive results are not listed. Rule for the calls: active = survival T/C of 150% or more; inactive = T/C below 125% in these data.

Test system: P388 leukemia ip, CD2F1 mice, survival T/C
Experiment: NCI In Vivo Anticancer Drug Screen. Data for tumor model P388 Leukemia (intraperitoneal) in CD2F1 (CDF1) mice
Details: endpoint: median survival time, higher = longer survival
In short: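 Mice carrying the transplanted tumor received test compound or vehicle. Survival was recorded in each group, and the value is the treated-group measurement divided by that of the vehicle-treated control group.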

[1] = dose: 50.0 mg/kg/injection, schedule: Q01DX009 (ip), vehicle: Klucel (hydroxypropylcellulose) (HPC)
[2] = dose: 60.0 mg/kg/injection, schedule: Q01DX005 (ip), vehicle: saline with Tween-80
[3] = dose: 120.0 mg/kg/injection, schedule: Q01DX005 (ip), vehicle: saline with Tween-80
[4] = dose: 240.0 mg/kg/injection, schedule: Q01DX005 (ip), vehicle: saline with Tween-80
[5] = dose: 50.0 mg/kg/injection, schedule: Q01DX009 (ip), vehicle: saline with Tween-80
[6] = dose: 100.0 mg/kg/injection, schedule: Q01DX009 (ip), vehicle: saline with Tween-80
[7] = dose: 200.0 mg/kg/injection, schedule: Q01DX009 (ip), vehicle: saline with Tween-80
[8] = dose: 50.0 mg/kg/injection, schedule: Q04DX003 (ip), vehicle: saline
[9] = dose: 100.0 mg/kg/injection, schedule: Q04DX003 (ip), vehicle: saline
[10] = dose: 50.0 mg/kg/injection, schedule: Q01DX009 (ip), vehicle: saline
[11] = dose: 50.0 mg/kg/injection, schedule: Q01DX005 (ip), vehicle: saline with Tween-80
[12] = dose: 100.0 mg/kg/injection, schedule: Q01DX005 (ip), vehicle: saline with Tween-80
[13] = dose: 50.0 mg/kg/injection, schedule: Q01DX005 (ip), vehicle: saline
[14] = dose: 100.0 mg/kg/injection, schedule: Q01DX005 (ip), vehicle: saline
[15] = dose: 200.0 mg/kg/injection, schedule: Q01DX005 (ip), vehicle: saline
[16] = dose: 50.0 mg/kg/injection, schedule: Q01DX005 (ip), vehicle: Klucel (hydroxypropylcellulose) (HPC)
[17] = dose: 100.0 mg/kg/injection, schedule: Q01DX005 (ip), vehicle: Klucel (hydroxypropylcellulose) (HPC)
[18] = dose: 60.0 mg/kg/injection, schedule: Q01DX005 (ip), vehicle: Klucel (hydroxypropylcellulose) (HPC)
[19] = dose: 120.0 mg/kg/injection, schedule: Q01DX005 (ip), vehicle: Klucel (hydroxypropylcellulose) (HPC)
[20] = dose: 240.0 mg/kg/injection, schedule: Q01DX005 (ip), vehicle: Klucel (hydroxypropylcellulose) (HPC)

Measured: T/C

O=C1C=C(Cl)C(=O)C(c2ccc(Cl)cc2)=C1
inactive: dose: 6.25 mg/kg/injection, schedule: Q01DX009 (ip), vehicle: Klucel (hydroxypropylcellulose) (HPC) 100 % of control | dose: 12.5 mg/kg/injection, schedule: Q01DX009 (ip), vehicle: Klucel (hydroxypropylcellulose) (HPC) 96 % of control | [1] 92 % of control

O=C(O)c1ccc(OCCOc2ccccc2)c(Cl)c1
inactive: [2] 98 % of control | [3] 95 % of control | [4] 93 % of control

Cc1ccc(N2C(=O)C(C)SC23C(=O)Nc2ccc(Cl)cc23)cc1 (configuration not stated)
inactive: [2] 91 % of control | [3] 96 % of control | [4] 100 % of control

CC(=O)N(c1ccccc1)[Si](C)(C)C
inactive: dose: 100.0 mg/kg/injection, schedule: Q01DX001 (ip), vehicle: saline with Tween-80 107 % of control | dose: 200.0 mg/kg/injection, schedule: Q01DX001 (ip), vehicle: saline with Tween-80 106 % of control | dose: 400.0 mg/kg/injection, schedule: Q01DX001 (ip), vehicle: saline with Tween-80 100 % of control

CCCCCCCC#CC(=O)O
inactive: [5] 88 % of control | [6] 89 % of control | [7] 86 % of control

Cc1c2ccncc2c(C)c2c1[nH]c1ccc(F)cc12
inactive: dose: 16.25 mg/kg/injection, schedule: Q04DX002 (ip), vehicle: Klucel (hydroxypropylcellulose) (HPC) 106 % of control | dose: 32.5 mg/kg/injection, schedule: Q04DX002 (ip), vehicle: Klucel (hydroxypropylcellulose) (HPC) 106 % of control

O=c1c(N=Nc2ccccc2)c(O)n(-c2ccccc2Cl)c(=S)n1-c1ccccc1
inactive: dose: 25.0 mg/kg/injection, schedule: Q01DX001 (ip), vehicle: Klucel (hydroxypropylcellulose) (HPC) 97 % of control | dose: 50.0 mg/kg/injection, schedule: Q01DX001 (ip), vehicle: Klucel (hydroxypropylcellulose) (HPC) 104 % of control | dose: 100.0 mg/kg/injection, schedule: Q01DX001 (ip), vehicle: Klucel (hydroxypropylcellulose) (HPC) 92 % of control

Cc1cccc(C)c1NC=O
inactive: [8] 112 % of control | [9] 105 % of control | dose: 200.0 mg/kg/injection, schedule: Q04DX003 (ip), vehicle: saline 106 % of control | dose: 400.0 mg/kg/injection, schedule: Q04DX003 (ip), vehicle: saline 106 % of control

CC(=O)OC1C=CC2Oc3ccc(C)cc3C1(C)O2 (configuration not stated)
inactive: [2] 93 % of control | [3] 106 % of control | [4] 101 % of control

CC1(C)N=C(N)N=C(N)N1c1ccc(CCC(=O)Nc2ccc(S(=O)(=O)F)cc2)cc1
active: dose: 4.4 mg/kg/injection, schedule: Q01DX009 (ip), vehicle: saline with Tween-80 155 % of control | dose: 6.6 mg/kg/injection, schedule: Q01DX009 (ip), vehicle: saline with Tween-80 150 % of control | dose: 10.0 mg/kg/injection, schedule: Q01DX009 (ip), vehicle: saline with Tween-80 160 % of control | dose: 12.5 mg/kg/injection, schedule: Q01DX009 (ip), vehicle: saline with Tween-80 169 % of control | dose: 25.0 mg/kg/injection, schedule: Q01DX009 (ip), vehicle: saline with Tween-80 180 % of control | dose: 44.0 mg/kg/injection, schedule: Q01DX009 (ip), vehicle: saline with Tween-80 168 % of control | [5] 177 % of control | dose: 66.0 mg/kg/injection, schedule: Q01DX009 (ip), vehicle: saline with Tween-80 177 % of control
inactive: [10] 93 % of control

O=C(N/N=C/c1ccccc1O)C(F)(F)F
inactive: [5] 86 % of control | [6] 86 % of control

N#CC1C(=O)NC(=O)C(C#N)C1c1c2ccccc2cc2ccccc12 (configuration not stated)
inactive: [1] 100 % of control | dose: 100.0 mg/kg/injection, schedule: Q01DX009 (ip), vehicle: Klucel (hydroxypropylcellulose) (HPC) 100 % of control | dose: 200.0 mg/kg/injection, schedule: Q01DX009 (ip), vehicle: Klucel (hydroxypropylcellulose) (HPC) 100 % of control

C=CCNC(=S)N/N=C(\CCC)c1ccccn1
inactive: [11] 114 % of control | [12] 121 % of control

C/C(=N\NC(=S)N1CCN(C2CCCCC2)CC1)c1ccccn1
inactive: dose: 1.56 mg/kg/injection, schedule: Q01DX005 (ip), vehicle: saline with Tween-80 103 % of control | dose: 3.13 mg/kg/injection, schedule: Q01DX005 (ip), vehicle: saline with Tween-80 106 % of control | dose: 6.25 mg/kg/injection, schedule: Q01DX005 (ip), vehicle: saline with Tween-80 101 % of control and 87 % of control

CN(C)CCC[Si]1(C)c2ccccc2CCc2ccccc21
inactive: dose: 25.0 mg/kg/injection, schedule: Q04DX003 (ip), vehicle: saline 104 % of control | [8] 105 % of control | [9] 109 % of control

COC(=O)C1=C(C(=O)OC)CC1
inactive: [5] 109 % of control | [6] 109 % of control | [7] 117 % of control

O=C(O)C1CC(O)CN1 (configuration not stated)
inactive: [13] 106 % of control | [14] 106 % of control | [15] 110 % of control

O=C(Nc1ncn[nH]1)c1ccccc1O
inactive: [16] 99 % of control | [17] 91 % of control | dose: 200.0 mg/kg/injection, schedule: Q01DX005 (ip), vehicle: Klucel (hydroxypropylcellulose) (HPC) 86 % of control

COC(=O)c1cc(-c2ccc(C)cc2)c2c(=O)n(-c3ccccc3)[nH]c2n1
inactive: [2] 100 % of control | [3] 100 % of control | [4] 97 % of control

Cc1ccc(C2=NN(c3ccccc3)C(c3ccccc3)C2NC2CCCCC2)cc1 (configuration not stated)
inactive: dose: 25.0 mg/kg/injection, schedule: Q01DX005 (ip), vehicle: Klucel (hydroxypropylcellulose) (HPC) 90 % of control | [16] 90 % of control | [17] 89 % of control

COC(=O)c1c[nH]c(=S)n1C
inactive: dose: 100.0 mg/kg/injection, schedule: Q04DX002 (ip), vehicle: saline 98 % of control | dose: 200.0 mg/kg/injection, schedule: Q04DX002 (ip), vehicle: saline 100 % of control | dose: 400.0 mg/kg/injection, schedule: Q04DX002 (ip), vehicle: saline 105 % of control

Cc1cc([N+](=O)[O-])ccc1N=Nc1ccc(O)c(C(=O)O)c1
inactive: [11] 105 % of control | [12] 95 % of control

COc1ccc(C2(c3ccc(OC)cc3)N=C(n3nc(C)cc3C)NC2=O)cc1
inactive: dose: 50.0 mg/kg/injection, schedule: Q04DX002 (ip), vehicle: saline with Tween-80 94 % of control | dose: 100.0 mg/kg/injection, schedule: Q04DX002 (ip), vehicle: saline with Tween-80 98 % of control | dose: 200.0 mg/kg/injection, schedule: Q04DX002 (ip), vehicle: saline with Tween-80 94 % of control

Cc1n[nH]c(=O)n2c1nc1ccccc12
inactive: [18] 95 % of control | [19] 95 % of control | [20] 92 % of control

CC(C)CC(C)NC(C)CC(C)C (configuration not stated)
inactive: dose: 12.5 mg/kg/injection, schedule: Q01DX005 (ip), vehicle: saline 90 % of control | dose: 25.0 mg/kg/injection, schedule: Q01DX005 (ip), vehicle: saline 97 % of control | [13] 102 % of control and 92 % of control

CN(/N=C/c1ccc(N(C)C)cc1)C(=O)c1ccccc1N
inactive: [5] 100 % of control | [6] 93 % of control | [7] 94 % of control

CC(N)C(=O)NC(C(=O)O)C(C)O (configuration not stated)
inactive: dose: 25.0 mg/kg/injection, schedule: Q01DX009 (ip), vehicle: saline 100 % of control | [10] 102 % of control | dose: 100.0 mg/kg/injection, schedule: Q01DX009 (ip), vehicle: saline 100 % of control | dose: 200.0 mg/kg/injection, schedule: Q01DX009 (ip), vehicle: saline 99 % of control | dose: 400.0 mg/kg/injection, schedule: Q01DX009 (ip), vehicle: saline 102 % of control

CCC(CC)CS(=O)(=O)OCCCCOS(=O)(=O)CC(CC)CC
inactive: [13] 99 % of control | [14] 107 % of control | [15] 111 % of control

CN(C)C(=O)c1ccccc1SC(=S)NCc1ccccc1
inactive: [18] 102 % of control | [19] 102 % of control | [20] 102 % of control
